Assays:
[1] = tested on: patients with cardiovascular diseases; conditions: 6 successive weeks; patients with cardiovascular diseases (3 atorvastatin, 4 simvastatin); cited from earlier work
Male Beagle dogs [2] = experiment: Test Example 1: serum lipids (total cholesterol, LDL, triglyceride) after 11 days of oral dosing; type: in vivo; conditions: oral once daily, Pyridoxine hydrochloride 50 mg/Kg, relative value, pre-treatment average = 100, mean of 5 dogs
Experimental: Pravastatin sodium manufactured at Sankyo Co., Ltd. was used. Simvastatin and atorvastatin synthesized at Chemtech Labo., Inc. were used.
The administration period was 11 days.
Approximately 10 mL of blood was collected from the cephalic vein of each dog on -14 and -7 day (the 1st and the 2nd week prior to administration) as well as 4, 8, and 12 days after administration.
The collected blood was placed in a test tube and allowed to stand at room temperature for 30 min to 1 hour. Then the blood was centrifuged (approximately 1,600 g, for 10 min) and the resultant serum obtained was used for assays.
Total cholesterol content was assayed by enzymatic assay method, while HDL, LDL, and triglyceride were determined by homogeneous method, chemically modified method, and enzymatic techniques, respectively. Clinical Laboratory System (TBA-120FR, Toshiba Medical Systems Corporation) was used in all of these determinations.
Relative values of various levels of serum lipids in animals treated with each dose of pyridoxine hydrochloride, pravastatin sodium, simvastatin, or atorvastatin calcium alone as well as the medicinal compositions described above were calculated against each converted average value calculated from that determined 2 weeks and 1 week before the treatment into 100.

Male Beagle dogs [3] = experiment: Test Example 2: blood homocysteine levels (HPLC) after 11 days of oral dosing; conditions: oral once daily, relative value, pre-treatment average = 100, mean of 5 dogs
Text: The required amount of the test substance calculated based on the body weight of the test animals was weighed and put in gelatin capsules (TORPAC Inc., ½ oz). After filling up, the capsules were placed in a box divided up for every animal and stored under freezing until use.
The capsules filled up with the test substance were orally administered to the test animals once daily via an oral gavage between 9:00-12:30. The test animals were fasted for 2-3 hrs prior to each administration. The administration period was 11 days.
Approximately 10 mL of blood was collected from the cephalic vein of each dog on -14 and -7 day (the 1st and the 2nd week prior to administration) as well as 4, 8, and 12 days after administration. The animals were fasted for approximately 18 hrs before collection of the blood.
Blood homocysteine levels were determined by HPLC method used conventionally in current clinical examination.
Relative values of blood homocysteine levels in animals treated with each dose of atorvastatin calcium or pyridoxine hydrochloride alone as well as the medicinal compositions of atorvastatin calcium plus pyridoxine hydrochloride were calculated against each converted average value calculated from that determined 2 weeks and 1 week before the treatment into 100.
The values indicate average results calculated from 5 dogs per a group.

patients = conditions: treated for one year; 20,705 patients; placebo control group 1.9% decrease; cited from earlier work
[4] = 4 Days after treatment, Simvastatin 1 mg/Kg
[5] = 8 Days after treatment, Simvastatin 1 mg/Kg
[6] = 12 Days after treatment, Simvastatin 1 mg/Kg
[7] = 4 Days after treatment, Atorvastatin calcium 2 mg/Kg
[8] = 8 Days after treatment, Atorvastatin calcium 2 mg/Kg
[9] = 12 Days after treatment, Atorvastatin calcium 2 mg/Kg
[10] = 4 Days after treatment, Atorvastatin calcium 2 mg/Kg and/or Pyridoxine hydrochloride 5 mg/Kg
[11] = 8 Days after treatment, Atorvastatin calcium 2 mg/Kg and/or Pyridoxine hydrochloride 5 mg/Kg
[12] = 12 Days after treatment, Atorvastatin calcium 2 mg/Kg and/or Pyridoxine hydrochloride 5 mg/Kg
[13] = 4 Days after treatment, Pravastatin sodium 2 mg/Kg
[14] = 8 Days after treatment, Pravastatin sodium 2 mg/Kg
[15] = 12 Days after treatment, Pravastatin sodium 2 mg/Kg

CCC(C)(C)C(=O)O[C@H]1C[C@@H](C)C=C2C=C[C@H](C)[C@H](CC[C@@H]3C[C@@H](O)CC(=O)O3)[C@H]21 [Simvastatin, (+)-(1S,3R,7S,8S,8aR)-1,2,3,7,8,8a-hexahydro-3,7-dimethyl-8-[2-[(2R,4R)-tetrahydro-4-hydroxy-6-oxo-2H-pyran-2-yl]ethyl]-1-naphthyl 2,2-dimethylbutyrate]
blood homocysteine levels (in words) [1]: decreased | Percent changes of blood LDL levels (Male Beagle dogs [2]; [4]): 83.9% | Percent changes of blood total cholesterol levels (Male Beagle dogs [2]; [4]): 94.8% | Percent changes of blood triglyceride levels (Male Beagle dogs [2]; [4]): 66.4% | Percent changes of blood LDL levels (Male Beagle dogs [2]; [5]): 90.4% | Percent changes of blood total cholesterol levels (Male Beagle dogs [2]; [5]): 94.1% | Percent changes of blood triglyceride levels (Male Beagle dogs [2]; [5]): 85.3% | Percent changes of blood LDL levels (Male Beagle dogs [2]; [6]): 81.3% | Percent changes of blood total cholesterol levels (Male Beagle dogs [2]; [6]): 92.4% | Percent changes of blood triglyceride levels (Male Beagle dogs [2]; [6]): 82.0%

CC(C)c1c(C(=O)Nc2ccccc2)c(-c2ccccc2)c(-c2ccc(F)cc2)n1CC[C@H](O)C[C@@H](O)CC(=O)O [Atorvastatin calcium, (3R,5S)-7-[2-(4-fluorophenyl)-5-(1-methylethyl)-3-phenyl-4-phenylaminocarbonyl-1H-pyrrol-1-yl]-3,5-dihydroxyheptanoic acid]
Percent changes of blood LDL levels (Male Beagle dogs [2]; [7]): 82.4% | Percent changes of blood triglyceride levels (Male Beagle dogs [2]; [7]): 77.2% | Percent changes of blood LDL levels (Male Beagle dogs [2]; [8]): 82.1% | Percent changes of blood triglyceride levels (Male Beagle dogs [2]; [8]): 86.3% | Percent changes of blood LDL levels (Male Beagle dogs [2]; [9]): 83.6% | Percent changes of blood triglyceride levels (Male Beagle dogs [2]; [9]): 86.4% | Percent changes of blood homocysteine levels (Male Beagle dogs [3]; [10]): 107.2% | Percent changes of blood homocysteine levels (Male Beagle dogs [3]; [11]): 106.3% | Percent changes of blood homocysteine levels (Male Beagle dogs [3]; [12]): 106.9%

CC(C)c1c(C(=O)Nc2ccccc2)c(-c2ccccc2)c(-c2ccc(F)cc2)n1CC[C@H](O)C[C@@H](O)CC(=O)O [atorvastatin, (3R,5S)-7-[2-(4-fluorophenyl)-5-(1-methylethyl)-3-phenyl-4-phenylaminocarbonyl-1H-pyrrol-1-yl]-3,5-dihydroxyheptanoic acid]
blood homocysteine levels (in words) [1]: increased

Cc1ncc(CO)c(CO)c1O.Cl [Pyridoxine hydrochloride]
Percent changes of blood LDL levels (Male Beagle dogs [2]; [7]): 101.7% | Percent changes of blood triglyceride levels (Male Beagle dogs [2]; [7]): 83.8% | Percent changes of blood LDL levels (Male Beagle dogs [2]; [13]): 101.7% | Percent changes of blood LDL levels (Male Beagle dogs [2]; [4]): 101.7% | Percent changes of blood total cholesterol levels (Male Beagle dogs [2]; [4]): 98.0% | Percent changes of blood triglyceride levels (Male Beagle dogs [2]; [4]): 83.8% | Percent changes of blood LDL levels (Male Beagle dogs [2]; [8]): 95.0% | Percent changes of blood triglyceride levels (Male Beagle dogs [2]; [8]): 86.7% | Percent changes of blood LDL levels (Male Beagle dogs [2]; [14]): 95.0% | Percent changes of blood LDL levels (Male Beagle dogs [2]; [5]): 95.0% | Percent changes of blood total cholesterol levels (Male Beagle dogs [2]; [5]): 93.3% | Percent changes of blood triglyceride levels (Male Beagle dogs [2]; [5]): 86.7% | Percent changes of blood LDL levels (Male Beagle dogs [2]; [9]): 91.4% | Percent changes of blood triglyceride levels (Male Beagle dogs [2]; [9]): 81.2% | Percent changes of blood LDL levels (Male Beagle dogs [2]; [15]): 91.4% | Percent changes of blood LDL levels (Male Beagle dogs [2]; [6]): 91.4% | Percent changes of blood total cholesterol levels (Male Beagle dogs [2]; [6]): 90.5% | Percent changes of blood triglyceride levels (Male Beagle dogs [2]; [6]): 81.2% | Percent changes of blood homocysteine levels (Male Beagle dogs [3]; [10]): 100.0% | Percent changes of blood homocysteine levels (Male Beagle dogs [3]; 4 Days after treatment, Pyridoxine hydrochloride 50 mg/Kg alone or with Atorvastatin calcium 2 mg/Kg): 101.4% | Percent changes of blood homocysteine levels (Male Beagle dogs [3]; [11]): 116.0% | Percent changes of blood homocysteine levels (Male Beagle dogs [3]; 8 Days after treatment, Pyridoxine hydrochloride 50 mg/Kg alone or with Atorvastatin calcium 2 mg/Kg): 111.5% | Percent changes of blood homocysteine levels (Male Beagle dogs [3]; [12]): 109.8% | Percent changes of blood homocysteine levels (Male Beagle dogs [3]; 12 Days after treatment, Pyridoxine hydrochloride 50 mg/Kg alone or with Atorvastatin calcium 2 mg/Kg): 103.0%

CC[C@H](C)C(=O)O[C@H]1C[C@@H](C)C=C2C=C[C@H](C)[C@H](CC[C@@H]3C[C@@H](O)CC(=O)O3)[C@H]21 [lovastatin, (+)-(1S,3R,7S,8S,8aR)-1,2,3,7,8,8a-hexahydro-3,7-dimethyl-8-[2-[(2R,4R)-tetrahydro-4-hydroxy-6-oxo-2H-pyran-2-yl]ethyl]-1-naphth yl(S)-2-methylbutyrate]
decrease of blood homocysteine levels on average (patients): 3.7%

CC[C@H](C)C(=O)O[C@H]1C[C@H](O)C=C2C=C[C@H](C)[C@H](CC[C@@H](O)C[C@@H](O)CC(=O)O)[C@H]21 [Pravastatin sodium, (+)-(3R,5R)-3,5-dihydroxy-7-[(1S,2S,6S,8S,8aR)-6-hydroxy-2-methyl-8-[(S)-2-methylbutyryloxy]-1,2,6,7,8,8a-hexahydro-1-naphtyl]heptanoic acid]
Percent changes of blood LDL levels (Male Beagle dogs [2]; [13]): 92.6% | Percent changes of blood LDL levels (Male Beagle dogs [2]; [14]): 91.6% | Percent changes of blood LDL levels (Male Beagle dogs [2]; [15]): 90.4%

Reference: patent US20080070938A1, “Medicinal composition for mitigating blood lipid or lowering blood homocysteine” (SANKYO COMPANY, LIMITED, priority 2002, published 2008)
